From patent US7468443B2, “Alkyl ether derivatives or salts thereof” (Toyama Chemical Co., Ltd., priority 2001, dated 2008)
Counter-ions that a name gives are not always drawn.

Legend:
[1] = system: PC12 cells; assay: Activity to accelerate neurite outgrowth (NGF-treated PC12 cells); format: cell-based, rat; settings: test compound 10 μM with 2.5s-NGF 40 ng/mL, 48 hours; neutrite outgrowth rate due to NGF taken as 100%
Description: [Activity to Accelerate Neurite Outgrowth]
PC12 cells [rat adrenomedullary chromaffinoma (NGF responders)] were cultured in an incubator (5% CO2, 37° C.) by using RPMI1640 medium (available from Nissui Pharmaceutical Co., Ltd.) containing 5% heat inactivated (56° C., 30 minutes) horse serum (available from Bio-Whittaker Inc.), 5% heat inactivated (56° C., 30 minutes) fetal calf serum (available from Sigma Chemical Co.) and 25 μg/ml gentamicin (available from GIBCO BRL).
The cultured PC12 cells were incubated at 37° C. for 30 minutes in phosphate-buffered physiological saline containing 1 mM EDTA, to be detached from a culture flask. The concentration of the cultured PC12 cells was adjusted to 5×10^4 cells/mL with RPMI1640 medium containing 1.5% heat inactivated horse serum, 1.5% heat inactivated fetal calf serum and 25 μg/ml gentamicin, and the resulting cell suspension was dispensed in 2 ml portions into 35-mm tissue culture dishes (mfd. by Falcon Inc.) coated with 0.01% polyornithine [dissolved in 150 mM borate buffer (pH 8.4)]. Then, 2.5s-NGF (available from Wako Pure Chemical Industries, Ltd.) [dissolved in phosphate-buffered physiological saline containing 0.1% bovine serum albumin] and each test compound were added to the medium at the same time so as to adjust their final concentrations to 40 ng/mL and 10 μM, respectively, followed by culturing under conditions of 5% CO2 and 37° C. After 48 hours of the culturing, cells were fixed in a 10% neutral formalin solution for 30 minutes, washed with phosphate-buffered physiological saline and distilled water, and then dried. […] The percentage of the number of cells having an neutrite extended to a length longer than the diameter of the cell body relative to the total number of cells observed (neutrite outgrowth rate) was calculated.
The activity to accelerate neutrite outgrowth was calculated according to the following expression as a neutrite outgrowth acceleration rate attained by the addition of each test compound, by taking a neutrite outgrowth rate due to NGF as 100%: (neutrite outgrowth rate attained by addition of each test compound)/(neutrite outgrowth rate due to NGF)×100 (%)

[2] = Metabolism in human liver microsomes; format: in vitro ADME; settings: incubation at 37° C. for 60 minutes, pooled human liver microsomes, NADPH generating system
Description: [Metabolism in Human Liver Microsomes]
In a test tube were placed 50 μL of 100 mmol/L potassium phosphate buffer (pH 7.4) and 25 μL of 3 mg protein/mL pooled human liver microsomes (available from Gentest Inc.), and a solution prepared by blending 10 μL of 66 mmol/L sodium glucose 6-phosphate, 10 μL of 10 units/mL glucose 6-phosphate dehydrogenase, 10 μL of 26 mmol/L nicotinamide adenine dinucleotide phosphate oxidized form, 10 μL of 66 mmol/L magnesium chloride and 135 μL of 100 mmol/L potassium phosphate buffer (pH 7.4) was added thereto, followed by preincubation for 5 minutes. Thereto was added 50 μL of each test compound to a concentration of 6 μmol/L to initiate the reaction, and incubation was carried out at 37° C. for 60 minutes (final volume: 300 μL). The reaction was terminated by the addition of 600 μL of acetonitrile, followed by centrifugation at 12000×g and at 4° C. for 15 minutes. The supernatant was separated, concentrated by centrifugation under reduced pressure, and then subjected to high performance liquid chromatography, and the amount of the residual test compound after the metabolic reaction was determined.
The residual rate was calculated by the following equation: Residual rate (%)=[(peak area due to the test compound after 60 minutes of the reaction)/(peak area due to the test compound in the case of stopping the reaction by adding acetonitrile simultaneously with the addition of the test compound after the preincubation)]×100

[3] = system: cultured neurons from cerebral cortices; assay: Activity to inhibit the neuronal death induced by Aβ (MTT assay); format: cell-based, Wistar strain rats; settings: concentration of 1 μM; Aβ (25 to 35 residues) 20 μmol/L
Description: [Activity to Inhibit the Neuronal Death Induced by Aβ]
Inhibitory effect on the death of cultured neurons induced by Aβ was investigated by modifying the method described in Brain Res., vol. 639, page 240 (1994).
Cerebral cortices isolated from the brains of embryos (aged 17 to 19 days) of Wistar strain rats were sliced, and then neurons were dissociated by trypsin treatment. The cells were seeded into a 48-well tissue culture plate at a density of 1×10^5 cells per well and cultured under conditions of 5% CO2 and 37° C. on Dulbecco's modified Eagle's medium added B27 supplement (available from GIBCO BRL) and 3.6 mg/mL glucose.
On the 12th to 13th day of the culture, a potassium chloride solution was added to the medium to adjust the final concentration of potassium chloride to 25 mmol/L. Immediately after this addition, each test compound was added to the medium. After 24 hours, Aβ (a peptides comprising 25 to 35 residues) dissolved in distilled water was added to the medium at a final concentration of 20 μmol/L. After another 24 hours, the medium was replaced with Dulbecco's modified Eagle's medium added B27 supplement and 3.6 mg/mL glucose and test compound.
The inhibitory activity of the test compound against the death of cultured neurons was determined by inhibition against the decrease of reducing ability of MMT. That is, MTT assay [J. Immuno. Methods, vol. […] Inhibition rate=[(MTT assay value of a group treated with Aβ and the drug)−(MTT assay value of a group treated with Aβ)]/[MTT assay value of an untreated group−MTT assay value of a group treated with Aβ]×100 (%).

[4] = system: sciatic nerve; assay: Activity to accelerate nerve regeneration (cut sciatic nerve, silicone tube model); format: in vivo, SD strain rats; settings: 1 mg/kg orally once a day from the seventh day; measured 21 days after cutting the nerve; regeneration distance relative to control group x100
Description: [Activity to Accelerate Nerve Regeneration]
The test was carried out according to the method described in J. Pharmaco. Exp. Ther., Vol. 290, page 348 (1999) and Neuroscience, vol. 88, page 257 (1999).
SD strain rats (male, aged 6 to 7 weeks, and weighing 170 to 280 g) were anesthetized with pentobarbital, and the left sciatic nerve of each rat was exposed in the femoral region, separated from the surrounding connective tissue, and then cut at a distal position which was about 1 cm apart from the gluteus. The ends of the nerve were inserted into a sterilized silicone tube with a length of 8 mm (inside diameter 1.3 mm, and outside diameter 1.8 mm) to a depth of 3.5 mm so that a space of 1 mm might be formed in the middle of the tube. The ends of the nerve were fixed and the nerve was put back to the muscular tissue together with the tube, after which the incised part was sutured. On the seventh day, each test compound dissolved in distilled water was orally administered in a dose of 1 mg/kg, and thereafter the test compound was administered once a day for 13 days in the same manner as above.
Twenty-one days after cutting the nerve, the sciatic nerve was exposed again under pentobarbital anesthesia, and the nerve in the femoral region and the crural region was separated from the surrounding connective tissues, after which the silicone tube at the cut part was removed. A stimulation electrode was set on the proximal side with respect to the cut position, and a recording electrode was set at the most distal position in the crural region. An electric stimulus (voltage: 2 V, delay: 1 msec, and duration: 100 μsec) was given, and an action potential induced by the stimulus was recorded. The recording electrode was gradually moved toward the proximal, and the distance between the cut position and the most distal position at which an action potential had been obtained was measured as regeneration distance. Only distilled water was administered to a control group.
The sciatic nerve regeneration rate of the test compound was calculated according to the following expression: (regeneration distance of drug-treated group)/(regeneration distance of control group)×100 (%)

## OC1CCN(CCOCCc2cccc3ccccc23)C1 (stereo not shown) [Example 29, 1-{2-[2-(1-naphthyl)ethoxy]-ethyl}-3-pyrrolidinol oxalate]
[1]
  neutrite outgrowth acceleration rate: 212%

## OC1CCN(CCCOCCc2ccc3occc3c2)C1 (stereo not shown) [Example 61, 1-{3-[2-(1-benzofuran-5-yl)ethoxy]propyl}-3-pyrrolidinol hydrochloride]
[2]
  residual rate: 74%
[3]
  inhibition rate against decrease of MTT assay value induced by Aβ: 52%

## O[C@@H]1CCN(CCOCCc2ccc3sccc3c2)C1 [Example 33, (3R)-1-{2-[2-(1-benzothiophen-5-yl)ethoxy]ethyl}-3-pyrrolidinol oxalate]
[3]
  inhibition rate against decrease of MTT assay value induced by Aβ: 54%
[4]
  sciatic nerve regeneration rate: 161%

## OC1CCN(CCCOCCc2ccc3sccc3c2)C1 (stereo not shown) [Example 59, 1-{3-[2-(1-benzothiophen-5-yl)ethoxy]propyl}-3-pyrrolidinol hydrochloride]
[1]
  neutrite outgrowth acceleration rate: 241%

## OC1CN(CCCOCCc2cc3ccccc3s2)C1 [Example 6, 1-{3-[2-(1-benzothiophen-2-yl)ethoxy]propyl}-3-azetidinol hydrochloride]
[3]
  inhibition rate against decrease of MTT assay value induced by Aβ: 48%
[1]
  neutrite outgrowth acceleration rate: 300%

## OC1CN(CCCOCCc2csc3ccccc23)C1 [Example 14, 1-{3-[2-(1-benzothiophen-3-yl)ethoxy]propyl}-3-azetidinol hydrochloride]
[2]
  residual rate: 75%
[3]
  inhibition rate against decrease of MTT assay value induced by Aβ: 48%
[1]
  neutrite outgrowth acceleration rate: 207%
[4]
  sciatic nerve regeneration rate: 150%

## OC1CCN(CCOCCc2ccc3ccccc3c2)C1 (stereo not shown) [Example 69, 1-{2-[2-(2-naphthyl)ethoxy]ethyl}-3-pyrrolidinol oxalate]
[2]
  residual rate: 74%
[3]
  inhibition rate against decrease of MTT assay value induced by Aβ: 70%
[1]
  neutrite outgrowth acceleration rate: 233%

## OC1CN(CCCOCCc2cccc3sccc23)C1 [Example 12, 1-{3-[2-(1-benzothiophen-4-yl)ethoxy]propyl}-3-azetidinol hydrochloride]
[2]
  residual rate: 83%
[1]
  neutrite outgrowth acceleration rate: 299%
[4]
  sciatic nerve regeneration rate: 142%

## OC1CN(CCOCCc2ccc3sccc3c2)C1 [Example 2, 1-{2-[2-(1-benzothiophen-5-yl)ethoxy]ethyl}-3-azetidinol hydrochloride]
[1]
  neutrite outgrowth acceleration rate: 265%

## CN(C)C1CCN(CCCOCCc2ccc3sccc3c2)C1 (stereo not shown) [Example 80, 1-{3-[2-(1-benzothiophen-5-yl)ethoxy]propyl}-N,N-dimethyl-3-pyrrolidinamine dihydrochloride]
[3]
  inhibition rate against decrease of MTT assay value induced by Aβ: 75%
[1]
  neutrite outgrowth acceleration rate: 190%

## OC1CN(CCCOCCc2ccc3sccc3c2)C1 [Example 10, 1-{3-[2-(1-benzothiophen-5-yl)ethoxy]propyl}-3-azetidinol hydrochloride]
[2]
  residual rate: 70%
[3]
  inhibition rate against decrease of MTT assay value induced by Aβ: 42%
[4]
  sciatic nerve regeneration rate: 186%

## OC1CN(CCCOCCc2ccc3sccc3c2)C1 [Example 81, 1-{3-[2-(1-benzothiophen-5-yl)ethoxy]propyl}-3-azetidinol 1/2 fumarate]
[1]
  neutrite outgrowth acceleration rate: 190%

## OC1CN(CCOCCc2ccc3sccc3c2)C1 (as salt: hydrochloride) [Example 2, 1-{2-[2-(1-benzothiophen-5-yl)ethoxy]ethyl}-3-azetidinol hydrochloride]
other
  melting point: 101 to 102 °C

## COc1cc2ccoc2cc1CCOCCN1CCC(O)C1 (stereo not shown) [Example 51, 1-{2-[2-(5-methoxy-1-benzofuran-6-yl)ethoxy]ethyl}-3-pyrrolidinol oxalate]
[1]
  neutrite outgrowth acceleration rate: 216%

## NC1CCN(CCCOCCc2ccc3sccc3c2)C1 (stereo not shown) [Example 74, 1-{3-[2-(1-benzothiophen-5-yl)ethoxy]propyl}-3-pyrrolidinamine oxalate]
[2]
  residual rate: 71%
[3]
  inhibition rate against decrease of MTT assay value induced by Aβ: 50%
[1]
  neutrite outgrowth acceleration rate: 246%

## O[C@@H]1CN(CCOCCc2ccc3sccc3c2)C[C@@H]1O [Example 71, (3R, 4S)-1-{2-[2-(1-benzothiophen-5-yl)ethoxy]ethyl}-3,4-pyrrolidinediol hydrochloride]
[2]
  residual rate: 80%
[1]
  neutrite outgrowth acceleration rate: 183%

## OC1CN(CCCOCCc2ccc3ccsc3c2)C1 [Example 4, 1-{3-[2-(1-benzothiophen-6-yl)ethoxy]propyl}-3-azetidinol hydrochloride]
[2]
  residual rate: 80%
[3]
  inhibition rate against decrease of MTT assay value induced by Aβ: 63%
[4]
  sciatic nerve regeneration rate: 167%

## O[C@H]1CCN(CCOCCc2ccc3sccc3c2)C1 [Example 31, (3S)-1-{2-[2-(1-benzothiophen-5-yl)ethoxy]ethyl}-3-pyrrolidinol oxalate]
[3]
  inhibition rate against decrease of MTT assay value induced by Aβ: 50%
[4]
  sciatic nerve regeneration rate: 155%
